Patent US20190343908A1, “Therapeutic Combination for the Treatment of Cancer” (Nerium Biotechnology Inc., priority 2011, published 2019)

How the values were obtained:
[1] = test system: HCT-15 (colorectal cancer); test: Sulforhodamine B viability assay, HCT-15; assay type: cell-based, human; parameters: key to SRB Average: absorbance (optical density) at 570 nm, second wavelength subtracted; conditions: for SRB Average 24 h / SRB Average 48 h / SRB Average 72 h: HCT-15, Run 1
Text: (§1) Three different viability assays were chosen to complement each other and yielded results dependent on concentration and cell line: the Methyl Tetrazolium dye assay, the Sulforhodamine B fluorescent dye assay, and the Crystal Violet dye assay.
(§2) The Sulforhodamine B and Crystal Violet assays provide information about protein and were used to complement the Methyl-Tetrazolium dye assay. […] It is used for the quantification of cellular proteins of cultured cells. The assay using Crystal Violet, a dye that binds electrostatically to proteins and stains DNA, provides a reliable, simple assay for measuring viability of cells.
(§3) The Methyl Tetrazolium, Sulforhodamine B, and Crystal Violet assays were used to assess cell viabilities. The incubation times were 24 hours, 48 hours, and 72 hours. The Nerium oleander extract Anvirzel™ (a hot water extract of oleander obtained from Salud Integral, Honduras) was tested in concentrations ranging from 0.01 ng/mL to 10 ng/mL.
(§4) Cells were detached by trypsinization (Trypsin-0.25% EDTA, Invitrogen, 25200-072) during the logarithmic phase of culture growth and plated in 96-well plates (18.000 cells/well) (Corning, Costar 359) in a final volume of 200 μl of medium per well. […] The absorbance was measured after 24 hours, 48 hours, and 72 hours of incubation.
(§5) For the Sulforhodamine B assay, 96-well plates were fixed by 10% trichloroacetic acid (Fluka, 91228) and were incubated at 4° C. for 1 hour. Afterwards, plates were rinsed with water and cells were stained with 0.4% Sulforhodamine B (Sigma, 341738), dissolved in 1% acetic acid (Carlo Ebra, 401422) for 15 minutes at room temperature (RT). The unbound stain was washed twice with 1% acetic acid. Finally, 10 mM Tris Buffer pH 10.5 (Sigma, T6791) was added to dissolve the dye.
(§6) The optical density of each plate was measured on a μQuant spectrophotometer and the data were analyzed with Gen5 software (μQuant Biomolecular Spectrophotometer MQX200 and Gen5™ Microplate Data Collection & Analysis software, BioTek® Instruments. Inc, April 2008). Absorbance was measured at 570 nm for all assays and a second wavelength was measured in order to subtract noise. For the Methyl-Tetrazolium assay this second wavelength was 630 nm and for the Sulforhodamine B and Crystal Violet assays it was 690 nm.

[2] = test system: T47D (human breast cancer); test: Sulforhodamine B viability assay, T47D; assay type: cell-based; parameters: key: absorbance (optical density) at 570 nm, second wavelength subtracted
Text: as §1, §2, §3, §4, §5, §6

[3] = test system: COLO699N lung cancer cell line; test: Sulforhodamine B viability assay, COLO699N; assay type: cell-based, human; parameters: key to SRB Average: absorbance (optical density) at 570 nm, second wavelength subtracted; conditions: for Average SRB 24 h / Average SRB 48 h / Average SRB 72 h: COLO699N Run 1; for ABSORBANCE: COLO699N, 0.1 μg/mL cisplatin
Text: as §1, §2, §3, §4, §5, §6

Structure (SMILES): N.N.[Cl][Pt][Cl] [cisplatin]
- SRB Average 24 h ([1]; 0.1 μg/ml CDDP): 2.592
- SRB Average 48 h ([1]; 0.1 μg/ml CDDP): 2.747
- SRB Average 72 h ([1]; 0.1 μg/ml CDDP): 2.792
- SRB Average 24 h ([1]; 1 μg/ml CDDP): 1.974
- SRB Average 48 h ([1]; 1 μg/ml CDDP): 2.397
- SRB Average 72 h ([1]; 1 μg/ml CDDP): 1.697
- SRB Average 24 h ([1]; 10 μg/ml CDDP): 1.657
- SRB Average 48 h ([1]; 10 μg/ml CDDP): 2.449
- SRB Average 72 h ([1]; 10 μg/ml CDDP): 1.71
- SRB Average 24 h ([1]; 100 μg/ml CDDP): 1.854
- SRB Average 48 h ([1]; 100 μg/ml CDDP): 1.937
- SRB Average 72 h ([1]; 100 μg/ml CDDP): 1.634
- SRB Average ([1]; Run 2, 24 h, 0.1 μg/ml CDDP): 2.271
- SRB Average ([1]; Run 2, 24 h, 1 μg/ml CDDP): 1.762
- SRB Average ([1]; Run 2, 24 h, 10 μg/ml CDDP): 2.09
- SRB Average ([1]; Run 2, 24 h, 100 μg/ml CDDP): 1.78
- SRB Average ([1]; Run 2, 48 h, 0.1 μg/ml CDDP): 2.54
- SRB Average ([1]; Run 2, 48 h, 1 μg/ml CDDP): 2.198
- SRB Average ([1]; Run 2, 48 h, 10 μg/ml CDDP): 2.456
- SRB Average ([1]; Run 2, 48 h, 100 μg/ml CDDP): 2.169
- SRB Average ([1]; Run 2, 72 h, 0.1 μg/ml CDDP): 2.797
- SRB Average ([1]; Run 2, 72 h, 1 μg/ml CDDP): 2.068
- SRB Average ([1]; Run 2, 72 h, 10 μg/ml CDDP): 1.85
- SRB Average ([1]; Run 2, 72 h, 100 μg/ml CDDP): 1.585
- SRB Average ([1]; Run 3, 24 h, 0.1 μg/ml CDDP): 2.578
- SRB Average ([1]; Run 3, 24 h, 1 μg/ml CDDP): 1.713
- SRB Average ([1]; Run 3, 24 h, 10 μg/ml CDDP): 1.941
- SRB Average ([1]; Run 3, 24 h, 100 μg/ml CDDP): 1.254
- SRB Average ([1]; Run 3, 48 h, 0.1 μg/ml CDDP): 2.768
- SRB Average ([1]; Run 3, 48 h, 1 μg/ml CDDP): 1.845
- SRB Average ([1]; Run 3, 48 h, 10 μg/ml CDDP): 2.104
- SRB Average ([1]; Run 3, 48 h, 100 μg/ml CDDP): 1.77
- SRB Average ([1]; Run 3, 72 h, 0.1 μg/ml CDDP): 2.96
- SRB Average ([1]; Run 3, 72 h, 1 μg/ml CDDP): 1.752
- SRB Average ([1]; Run 3, 72 h, 10 μg/ml CDDP): 2.063
- SRB Average ([1]; Run 3, 72 h, 100 μg/ml CDDP): 1.935
- SRB Average ([2]; T47D Run 1, 24 h, 1 μg/ml CDDP): 1.786
- SRB Average ([2]; T47D Run 1, 24 h, 10 μg/ml CDDP): 1.586
- SRB Average ([2]; T47D Run 1, 24 h, 100 μg/ml CDDP): 1.494
- SRB Average ([2]; T47D Run 1, 48 h, 0.1 μg/ml CDDP): 2.029
- SRB Average ([2]; T47D Run 1, 48 h, 1 μg/ml CDDP): 1.913
- SRB Average ([2]; T47D Run 1, 48 h, 10 μg/ml CDDP): 1.768
- SRB Average ([2]; T47D Run 1, 72 h, 0.1 μg/ml CDDP): 2.34
- SRB Average ([2]; T47D Run 1, 72 h, 1 μg/ml CDDP): 1.863
- SRB Average ([2]; T47D Run 1, 72 h, 10 μg/ml CDDP): 1.428
- SRB Average ([2]; T47D Run 2, 24 h, 0.1 μg/ml CDDP): 2.474
- SRB Average ([2]; T47D Run 2, 24 h, 1 μg/ml CDDP): 1.601
- SRB Average ([2]; T47D Run 2, 24 h, 10 μg/ml CDDP): 1.417
- SRB Average ([2]; T47D Run 2, 24 h, 100 μg/ml CDDP): 1.102
- SRB Average ([2]; T47D Run 2, 48 h, 0.1 μg/ml CDDP): 2.112
- SRB Average ([2]; T47D Run 2, 48 h, 1 μg/ml CDDP): 1.969
- SRB Average ([2]; T47D Run 2, 48 h, 10 μg/ml CDDP): 1.988
- SRB Average ([2]; T47D Run 2, 48 h, 100 μg/ml CDDP): 1.708
- SRB Average ([2]; T47D Run 2, 72 h, 0.1 μg/ml CDDP): 1.969
- SRB Average ([2]; T47D Run 2, 72 h, 1 μg/ml CDDP): 1.201
- SRB Average ([2]; T47D Run 2, 72 h, 10 μg/ml CDDP): 1.567
- SRB Average ([2]; T47D Run 2, 72 h, 100 μg/ml CDDP): 1.513
- SRB Average ([2]; T47D Run 3, 24 h, 0.1 μg/ml CDDP): 1.615
- SRB Average ([2]; T47D Run 3, 24 h, 1 μg/ml CDDP): 1.846
- SRB Average ([2]; T47D Run 3, 24 h, 10 μg/ml CDDP): 1.368
- SRB Average ([2]; T47D Run 3, 24 h, 100 μg/ml CDDP): 1.34
- SRB Average ([2]; T47D Run 3, 48 h, 0.1 μg/ml CDDP): 2.223
- SRB Average ([2]; T47D Run 3, 48 h, 1 μg/ml CDDP): 2.03
- SRB Average ([2]; T47D Run 3, 48 h, 10 μg/ml CDDP): 1.974
- SRB Average ([2]; T47D Run 3, 48 h, 100 μg/ml CDDP): 1.758
- SRB Average ([2]; T47D Run 3, 72 h, 0.1 μg/ml CDDP): 2.044
- SRB Average ([2]; T47D Run 3, 72 h, 1 μg/ml CDDP): 1.344
- SRB Average ([2]; T47D Run 3, 72 h, 10 μg/ml CDDP): 1.461
- Average SRB 24 h ([3]; 0.1 μg/ml CDDP): 1.552
- Average SRB 48 h ([3]; 0.1 μg/ml CDDP, 48 h): 1.317
- Average SRB 72 h ([3]; 0.1 μg/ml CDDP, 72 h): 1.658
- Average SRB 24 h ([3]; 1 μg/ml CDDP): 1.526
- Average SRB 48 h ([3]; 1 μg/ml CDDP, 48 h): 1.388
- Average SRB 72 h ([3]; 1 μg/ml CDDP, 72 h): 1.152
- Average SRB 24 h ([3]; 10 μg/ml CDDP): 1.384
- Average SRB 48 h ([3]; 10 μg/ml CDDP, 48 h): 1.524
- Average SRB 72 h ([3]; 10 μg/ml CDDP, 72 h): 0.922
- Average SRB 24 h ([3]; 100 μg/ml CDDP): 1.085
- Average SRB 48 h ([3]; 100 μg/ml CDDP, 48 h): 1.452
- Average SRB 72 h ([3]; 100 μg/ml CDDP, 72 h): 1.114
- ABSORBANCE ([3]; 48 h): 1.975
- ABSORBANCE ([3]; 72 h): 2.145
- SRB Average ([3]; Run 2, 24 h, 0.1 μg/ml CDDP): 1.709
- SRB Average ([3]; Run 2, 24 h, 1 μg/ml CDDP): 1.61
- SRB Average ([3]; Run 2, 24 h, 10 μg/ml CDDP): 1.523
- SRB Average ([3]; Run 2, 24 h, 100 μg/ml CDDP): 1.354
- SRB Average ([3]; Run 2, 48 h, 0.1 μg/ml CDDP): 1.975
- SRB Average ([3]; Run 2, 48 h, 1 μg/ml CDDP): 1.253
- SRB Average ([3]; Run 2, 48 h, 10 μg/ml CDDP): 1.27
- SRB Average ([3]; Run 2, 48 h, 100 μg/ml CDDP): 1.256
- SRB Average ([3]; Run 2, 72 h, 0.1 μg/ml CDDP): 2.145
- SRB Average ([3]; Run 2, 72 h, 1 μg/ml CDDP): 1.256
- SRB Average ([3]; Run 2, 72 h, 10 μg/ml CDDP): 1.524
- SRB Average ([3]; Run 2, 72 h, 100 μg/ml CDDP): 1.312
- SRB Average ([3]; Run 3, 24 h, 0.1 μg/ml CDDP): 1.99
- SRB Average ([3]; Run 3, 24 h, 1 μg/ml CDDP): 1.839
- SRB Average ([3]; Run 3, 24 h, 10 μg/ml CDDP): 1.527
- SRB Average ([3]; Run 3, 24 h, 100 μg/ml CDDP): 1.387
- SRB Average ([3]; Run 3, 48 h, 0.1 μg/ml CDDP): 1.978
- SRB Average ([3]; Run 3, 48 h, 1 μg/ml CDDP): 1.092
- SRB Average ([3]; Run 3, 48 h, 10 μg/ml CDDP): 1.259
- SRB Average ([3]; Run 3, 48 h, 100 μg/ml CDDP): 1.218
- SRB Average ([3]; Run 3, 72 h, 0.1 μg/ml CDDP): 1.946
- SRB Average ([3]; Run 3, 72 h, 1 μg/ml CDDP): 1.249
- SRB Average ([3]; Run 3, 72 h, 10 μg/ml CDDP): 1.014
- SRB Average ([3]; Run 3, 72 h, 100 μg/ml CDDP): 1.033
